Consider 67 compounds from ChEMBL document CHEMBL5241120, “Insights into the medicinal chemistry of heterocycles integrated with a pyrazolo[1,5-a]pyrimidine scaffold” (RSC Med Chem, 2022).

Test [1] concerns SiHa. The experiment in a line: Cytotoxicity against human SiHa cells by MTT assay. Type of test: functional, cell-based.
Test [2] deals with HeLa. As to the kind of experiment: Cytotoxicity against human HeLa cells by MTT assay. The test is classed as functional, cell-based. On the technique in general: Tetrazolium assays rely on reduction of a dye to a coloured formazan, in cell work by metabolically active cells.
The test system of test [3] is HepG2. As to the kind of experiment: Cytotoxicity against human HepG2 cells by MTT assay. Type of test: functional, cell-based.
For test [4], the system named is Staphylococcus aureus. The experiment in a line: Antibacterial activity against Staphylococcus aureus assessed as zone of inhibition. The test is classed as functional.
In test [5] the test system is Pseudomonas aeruginosa. As to the kind of experiment: Antibacterial activity against Pseudomonas aeruginosa assessed as zone of inhibition. The test is classed as functional.
Test [6] concerns Escherichia coli. As to the kind of experiment: Antibacterial activity against Escherichia coli assessed as zone of inhibition. Type of test: functional.
Test [7] relates to Bacillus subtilis. The experiment in a line: Antibacterial activity against Bacillus subtilis assessed as zone of inhibition. The test is classed as functional.
Test [8] concerns Panel NCI-60 (60 carcinoma cell lines). The experiment in a line: Cytotoxicity against human Panel NCI-60 (60 carcinoma cell lines). On the set-up: concentration or dose not given beside the values. The test is classed as functional.
The test system of test [9] is MCF7. As to the kind of experiment: Cytotoxicity against human MCF7 cells by MTT assay. The test is classed as functional, cell-based.

What is called IC50 is the concentration that gives 50% inhibition. For `COc1ccc(-c2cc(C(=O)N3CCN(C(=O)c4ccccc4NCc4cccs4)CC3)nc3cc(-c4ccccc4)nn23)cc1OC`, the IC50 in test [1] was found to be 1.81 µM; in [2], 1.99 µM.

As to `COc1ccc(-c2cc(C(=O)N3CCN(C(=O)c4ccccc4NCc4cccc5c4OCO5)CC3)nc3cc(-c4ccccc4)nn23)cc1`, the IC50 in [2] came to 1.95 µM.

`COc1ccc(Nc2nn3c4c(cnc3c2C(=O)Nc2ccc(Cl)cc2)C(=O)CC(C)(C)C4)cc1`: the midpoint of inhibition in test [3], the IC50, lay at 72.2 µM.

`NC(=O)c1c(Nc2ccc(Br)cc2)nn2c(-c3ccc(Br)cc3)ccnc12`: the “inhibition zone (IZ)” value in [4], in [5], in test [6] and in test [7] was 9 mm each time.

Compound `COc1ccc(Nc2nn3c(O)cc(C)nc3c2C(=O)Nc2ccc(C)cc2)c(OC)c1` yielded an Activity in test [8] of 0.5%.

`COc1ccc(Nc2nn3c(O)cc(C)nc3c2C(N)=O)c(OC)c1`: the Activity in [8] came out at 0.5%.

The compound `COc1ccc(-c2ccnc3c(C(N)=O)c(Nc4ccc(Cl)cc4)nn23)cc1` yielded an IC50 in test [3] of 72.2 µM.

Compound `COc1ccc(Nc2nn3c(-c4ccccc4)cc(-c4ccccc4)nc3c2C(=O)Nc2ccccc2)c(OC)c1` gave an Activity in test [8] of 0.5%.

For `CNc1nn2c(-c3ccccc3)ccnc2c1C(N)=O`, the “inhibition zone (IZ)” value in test [5] and in test [7] was 9 mm throughout.

For `COc1ccc(Nc2nn3c(O)cc(-c4ccccc4)nc3c2C(=O)Nc2ccc(C)cc2)c(OC)c1`, in test [8], the Activity turned out to be 0.5%.

For `O=C(c1cc(-c2ccccc2)n2nc(-c3ccccc3)cc2n1)N1CCN(C(=O)c2ccccc2NCc2ccco2)CC1`, the midpoint of inhibition in test [1], the IC50, lay at 1.93 µM.

`COc1ccc(-c2cc(-c3nn4cc(-c5ccncc5)cnc4c3S(=O)(=O)c3ccc(OC)cc3)on2)cc1` yielded an IC50 in test [1] of 1.77 µM.

`CCOC(=O)c1cnc2c(C(=O)Nc3ccccc3)cnn2c1C`: the “inhibition zone (IZ)” value in test [6] worked out at 10 mm.

`COc1ccc(-c2cc(C(=O)N3CCN(C(=O)c4ccccc4NCc4ccco4)CC3)nc3cc(-c4ccccc4)nn23)cc1OC` registered an IC50 in [2] of 1.56 µM.

With `COc1ccc(Nc2nn3c(N)c(C#N)c(-c4cc(OC)ccc4OC)nc3c2C(=O)Nc2ccc(Cl)cc2)cc1`, the entries for the “inhibition zone (IZ)” value in test [6] and in [7] were 16 mm and 21 mm, respectively.

As to `CC1(C)CC(=O)c2cnc3c(C(N)=O)c(Nc4ccccc4)nn3c2C1`, the values for the IC50 in test [3] and in [9] were 77.6 µM and 66.5 µM, respectively.

The compound `O=C(c1cc(-c2ccccc2)n2nc(-c3ccccc3)cc2n1)N1CCN(C(=O)c2ccccc2NCc2cccc3c2OCO3)CC1` showed an IC50 in [2] of 1.95 µM.

In the case of `O=C(c1cc(-c2ccc([N+](=O)[O-])cc2)n2nc(-c3ccccc3)cc2n1)N1CCN(C(=O)c2ccccc2NCc2cccc3c2OCO3)CC1`, the IC50 in [1] and in [2] was 1.99 µM each time.

As for `COc1ccc(-c2cc(-c3nn4cc(-c5ccncc5)cnc4c3S(=O)(=O)c3ccc([N+](=O)[O-])cc3)on2)cc1`, the IC50 in [1] amounted to 2.1 µM.

In test [3], `NC(=O)c1c(Nc2ccc(Cl)cc2)nn2c(-c3ccc(F)cc3)ccnc12` had an IC50 of 72.2 µM.

In turn, `COc1ccc(Nc2nn3c(O)cc(C)nc3c2C(=O)Nc2ccccc2)c(OC)c1` came in with an Activity in test [8] of 0.5%.

For the compound `NC(=O)c1c(Nc2ccccc2)nn2c(-c3ccc(Cl)cc3)ccnc12`, the “inhibition zone (IZ)” value in [5] and in test [7] was 9 mm each time. The IC50 in [3] turned out to be 86.6 µM; in test [9] it was 63.2 µM.

`COc1ccc(NC(=O)c2c(Nc3ccc(OC)cc3OC)nn3c(C)cc(C)nc23)c(OC)c1` had an Activity in [8] of 0.5%.

Compound `COc1ccc(Nc2nn3c(-c4ccccc4)cc(-c4ccccc4)nc3c2C(=O)Nc2ccc(C)cc2)c(OC)c1` returned an Activity in test [8] of 0.5%.

`COc1ccc(NC(=O)c2c(Nc3ccc(OC)cc3OC)nn3c(O)cc(C)nc23)c(OC)c1` gave an Activity in test [8] of 0.5%.

Turning to `COc1ccc(Nc2nn3c(N)c(C#N)c(-c4cccc(C)c4)nc3c2C(=O)Nc2ccccc2)cc1`, the “inhibition zone (IZ)” value was determined as 16 mm in [6] and 20 mm in test [7].

Turning to `NC(=O)c1c(Nc2ccc(Br)cc2)nn2c3c(cnc12)CCCC3`, the “inhibition zone (IZ)” value in test [5] and in [7] was 9 mm in each case.

Regarding `Cc1cc(-n2ncc3c(=O)n(-c4ccccc4)cnc32)n2ncc(C#N)c2n1`, the “inhibition zone (IZ)” value in test [6] is 13.1 mm; in [7], 14.3 mm.

`COc1ccc(Nc2nn3c(C)cc(C)nc3c2C(N)=O)c(OC)c1`: the Activity in test [8] is listed as 0.5%.

As to `COc1ccc(Nc2nn3c(-c4ccc(Br)cc4)ccnc3c2C(N)=O)cc1`, the IC50 in [3] stood at 70.3 µM; in test [9] it was 65.3 µM.

For `COc1ccc(NC(=O)c2c(Nc3ccc(OC)cc3OC)nn3c(O)cc(-c4ccccc4)nc23)c(OC)c1`, the Activity in test [8] amounted to 0.5%.

Take `O=C(Nc1ccccc1)c1cnn2c(-c3ccc(Cl)cc3)ccnc12`: the figures for the “inhibition zone (IZ)” value in [4] and in test [6] were 17 mm and 10 mm, respectively.

As for `NC(=O)c1c(Nc2ccccc2)nn2c(-c3ccc(F)cc3)ccnc12`, the midpoint of inhibition in test [3], the IC50, lay at 72.2 µM.

In test [3], `Nc1nc2c(/N=N/c3ccc(C(F)(F)F)cc3)c(N)nn2c(N)c1/N=N/c1nccs1` came in with an IC50 of 4.1 µg/mL.

With `O=C(Nc1ccccc1)c1cnn2c(-c3ccc([N+](=O)[O-])cc3)ccnc12`, the “inhibition zone (IZ)” value in test [6] is 11 mm.

In the case of `NC(=O)c1c(Nc2ccc(Br)cc2)nn2c(-c3ccccc3)ccnc12`, the “inhibition zone (IZ)” value in test [5], in [6] and in test [7] was 9 mm in each case.

In test [2], `COc1ccc(-c2cc(C(=O)N3CCN(C(=O)c4ccccc4NCc4ccco4)CC3)nc3cc(-c4ccccc4)nn23)cc1` gave an IC50 of 1.73 µM.

In the case of `NC(=O)c1c(Nc2ccccc2)nn2c(-c3ccc(Br)cc3)ccnc12`, the IC50 in [3] came to 76.2 µM; in test [9], 64 µM. Moreover, the “inhibition zone (IZ)” value in test [7] is given as 9 mm.

In the case of `COC(=O)c1cnc2c(C(=O)Nc3ccccc3)cnn2c1C`, the “inhibition zone (IZ)” value in [4] is given as 19 mm.

`NC(=O)c1c(Nc2ccc(Br)cc2)nn2c(-c3ccc(Cl)cc3)ccnc12`: in test [4], the “inhibition zone (IZ)” value worked out at 9 mm.

For the compound `NC(=O)c1c(Nc2ccc(Br)cc2)nn2c3c(cnc12)CCC3`, the “inhibition zone (IZ)” value in test [5] was 9 mm; in test [6], 11 mm; in test [7], 12 mm.

The compound `O=C(Nc1ccccc1-c1ccnc2c(C(=O)NCc3ccccc3Cl)cnn12)c1ccc(Cl)c(Cl)c1` returned an IC50 in test [2] of 9.1 µM.

In test [2], `COc1ccc(-c2cc(C(=O)N3CCN(C(=O)c4ccccc4NCc4cc(OC)c(OC)c(OC)c4)CC3)nc3cc(-c4ccccc4)nn23)cc1` came in with an IC50 of 1.89 µM.

In turn, `Cc1ccc(Nc2nn3c(-c4ccc(Cl)cc4)ccnc3c2C(N)=O)cc1` had an IC50 in [3] of 72.2 µM.

Compound `COc1cc(-c2cc(C(=O)N3CCN(C(=O)c4ccccc4NCc4cccc5c4OCO5)CC3)nc3cc(-c4ccccc4)nn23)cc(OC)c1OC` displayed an IC50 in test [2] of 1.76 µM.

In the case of `COc1ccc(Nc2nn3c(O)cc(-c4ccccc4)nc3c2C(N)=O)c(OC)c1`, the Activity in [8] came out at 0.5%.

Turning to `CCNc1nn2c(-c3ccc(Br)cc3)ccnc2c1C(N)=O`, the “inhibition zone (IZ)” value in test [4] amounted to 9 mm.

Turning to `COc1ccc(Nc2nn3c(C)cc(C)nc3c2C(=O)Nc2ccccc2)c(OC)c1`, in [8], the Activity came out at 0.5%.

Regarding `O=C(Nc1ccccc1)c1cnn2c(-c3ccccc3)ccnc12`, the “inhibition zone (IZ)” value in test [4] and in test [6] was 10 mm throughout.

As to `Cc1ccc(Nc2nn3c(-c4ccc(Br)cc4)ccnc3c2C(N)=O)cc1`, in test [3], the concentration for half-maximal inhibition (IC50) came out at 72.2 µM.

For the compound `CCOC(=O)c1cnn(-c2cc(C)nc3c(C#N)cnn23)c1N`, the “inhibition zone (IZ)” value came out at 15.4 mm in [6] and 17.1 mm in test [7].

As for `O=C(Nc1ccccc1-c1ccnc2c(C(=O)NCc3ccc(F)cc3)cnn12)c1ccc(Cl)c(Cl)c1`, 9.6 µM corresponded to half-maximal inhibition in test [2] (IC50).

As for `COc1ccc(-c2ccnc3c(C(=O)Nc4ccccc4)cnn23)cc1`, in test [6], the “inhibition zone (IZ)” value amounted to 10 mm.

With `COc1cc(CNc2ccccc2C(=O)N2CCN(C(=O)c3cc(-c4ccc(C)cc4)n4nc(-c5ccccc5)cc4n3)CC2)cc(OC)c1OC`, in [2], the IC50 worked out at 1.81 µM.

As for `NC(=O)c1c(Nc2ccccc2)nn2c(-c3ccc(O)cc3)ccnc12`, the “inhibition zone (IZ)” value in [4], in [5], in test [6] and in test [7] was 9 mm each time.

In turn, `O=C(Nc1ccccc1-c1ccnc2c(C(=O)NCc3ccc(F)cc3)cnn12)c1c(Cl)cc(Cl)cc1Cl` displayed an IC50 in test [2] of 8.7 µM.

As for `NC(=O)c1c(Nc2ccc(Cl)cc2)nn2c(-c3ccc(Cl)cc3)ccnc12`, the IC50 in test [3] was 72.2 µM.

For the compound `NC(=O)c1c(Nc2ccc(Cl)cc2)nn2c(-c3ccc(Br)cc3)ccnc12`, the IC50 in [3] worked out at 72.2 µM.

As for `NC(=O)c1c(Nc2ccccc2)nn2c3c(cnc12)CCC3`, the “inhibition zone (IZ)” value in [5] and in [7] was 9 mm in each case.

The compound `COc1ccc(-c2cc(-c3nn4cc(-c5ccncc5)cnc4c3S(=O)(=O)c3cc(OC)cc(OC)c3)on2)cc1` showed an IC50 in test [1] of 0.99 µM.

In test [8], `COc1ccc(Nc2nn3c(C)cc(C)nc3c2C(=O)Nc2ccc(C)cc2)c(OC)c1` displayed an Activity of 0.5%.

In the case of `COc1ccc(Nc2nn3c(O)cc(-c4ccccc4)nc3c2C(=O)Nc2ccccc2)c(OC)c1`, the Activity in test [8] worked out at 0.5%.

`COc1ccc(Nc2nn3c(-c4cccs4)ccnc3c2C(N)=O)cc1`: the IC50 in test [3] stood at 72.2 µM.

Regarding `Nc1nn2c(-c3ccc(S(=O)(=O)c4ccccc4)cc3)ccnc2c1/N=N/c1ccccc1`, the “inhibition zone (IZ)” value in test [7] was 26.5 mm.

Regarding `NC(=O)c1c(Nc2ccc(Cl)cc2)nn2c(-c3ccccc3)ccnc12`, in test [3], the IC50 is 72.2 µM.

For `COc1ccc(NC(=O)c2c(Nc3ccc(OC)cc3OC)nn3c(-c4ccccc4)cc(-c4ccccc4)nc23)c(OC)c1`, the Activity in test [8] stood at 0.5%.

Regarding `NC(=O)c1c(Nc2ccc(Br)cc2)nn2c3c(cnc12)CCCCCC3`, the “inhibition zone (IZ)” value in test [5] and in [7] was 9 mm in each case.
